From ChEMBL document CHEMBL1201861, “Genomics of Drug Sensitity in Cancer screening data, Wellcome Trust Sanger Institute”

Experiments:
COLO-741 = assay: cells; assay type: functional, cell-based; settings: Homo sapiens
Description: SANGER: Inhibition of human COLO-741 cell growth in a cell viability assay.

DMS-53 = assay: cells; assay type: functional, cell-based; settings: Homo sapiens;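 further: cell viability assay measuring growth inhibition of human DMS-53 cells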
Description: SANGER: Inhibition of human DMS-53 cell growth in a cell viability assay.

CCF-STTG1 = assay: cells; assay type: functional, cell-based; settings: Homo sapiens;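 further: growth inhibition of human CCF-STTG1 cells, determined with a cell viability read-out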
Description: SANGER: Inhibition of human CCF-STTG1 cell growth in a cell viability assay.

OE33 = assay: cells; assay type: functional, cell-based; settings: Homo sapiens;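 further: growth inhibition of human OE33 cells, measured by a cell viability assay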
Description: SANGER: Inhibition of human OE33 cell growth in a cell viability assay.

G-402 = assay: cells; assay type: functional, cell-based; settings: Homo sapiens
Description: SANGER: Inhibition of human G-402 cell growth in a cell viability assay.

NCI-H1703 = assay: cells; assay type: functional, cell-based; settings: Homo sapiens;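 further: growth inhibition of NCI-H1703 cells, read out via a cell viability assay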
Description: SANGER: Inhibition of human NCI-H1703 cell growth in a cell viability assay.

SW13 = assay: cells; assay type: functional, cell-based; settings: Homo sapiens;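 further: IC50 is inhibition of SW13 cell growth, read out with a cell viability assay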
Description: SANGER: Inhibition of human SW13 cell growth in a cell viability assay.

NCI-H2347 = assay: cells; assay type: functional, cell-based; settings: Homo sapiens;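 further: growth inhibition of the cell line, read out with a cell viability assay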
Description: SANGER: Inhibition of human NCI-H2347 cell growth in a cell viability assay.

CAKI-1 = assay: cells; assay type: functional, cell-based; settings: Homo sapiens;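 further: growth inhibition of CAKI-1 cells, measured by a cell viability assay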
Description: SANGER: Inhibition of human CAKI-1 cell growth in a cell viability assay.

MFE-296 = assay: SANGER: Inhibition of human MFE-296 cell growth in a cell viability assay.; assay type: functional, cell-based
NCI-H1693 = assay: cells; assay type: functional, cell-based; settings: Homo sapiens;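 further: growth inhibition of the human cell line, read out with a cell viability assay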
Description: SANGER: Inhibition of human NCI-H1693 cell growth in a cell viability assay.

COLO-679 = assay: cells; assay type: functional, cell-based; settings: Homo sapiens
Description: SANGER: Inhibition of human COLO-679 cell growth in a cell viability assay.

GDM-1 = assay: cells; assay type: functional, cell-based; settings: Homo sapiens;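 further: cell viability readout used to measure growth inhibition of human GDM-1 cells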
Description: SANGER: Inhibition of human GDM-1 cell growth in a cell viability assay.

A-427 = assay: cells; assay type: functional, cell-based; settings: Homo sapiens;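 further: growth inhibition of human A-427 cells, read out by a cell viability assay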
Description: SANGER: Inhibition of human A427 cell growth in a cell viability assay.

NCI-H889 = assay: cells; assay type: functional, cell-based; settings: Homo sapiens;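 further: cell growth inhibition of the cell line, read out with a viability assay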
Description: SANGER: Inhibition of human NCI-H889 cell growth in a cell viability assay.

D-247MG = assay: cells; assay type: functional, cell-based; settings: Homo sapiens
Description: SANGER: Inhibition of human D-247MG cell growth in a cell viability assay.

SK-N-AS = assay: cells; assay type: functional, cell-based; settings: Homo sapiens;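 further: growth inhibition of human SK-N-AS cells, measured with a cell viability assay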
Description: SANGER: Inhibition of human SK-N-AS cell growth in a cell viability assay.

LB647-SCLC = assay: cells; assay type: functional, cell-based; settings: Homo sapiens;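 further: cell growth inhibition, read out by a viability assay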
Description: SANGER: Inhibition of human LB647-SCLC cell growth in a cell viability assay.

CAL-27 = assay: cells; assay type: functional, cell-based; settings: Homo sapiens;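 further: Viability-based readout, IC50 reflecting inhibition of CAL-27 cell growth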
Description: SANGER: Inhibition of human CAL-27 cell growth in a cell viability assay.

NCI-H2087 = assay: cells; assay type: functional, cell-based; settings: Homo sapiens;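 further: growth inhibition determined with a cell viability readout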
Description: SANGER: Inhibition of human NCI-H2087 cell growth in a cell viability assay.

HCC1569 = assay: cells; assay type: functional, cell-based; settings: Homo sapiens;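 further: growth inhibition of human HCC1569 cells, read out with a cell viability assay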
Description: SANGER: Inhibition of human HCC1569 cell growth in a cell viability assay.

HCC1599 = assay: cells; assay type: functional, cell-based; settings: Homo sapiens;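 further: growth inhibition of HCC1599 cells, read out in a cell viability assay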
Description: SANGER: Inhibition of human HCC1599 cell growth in a cell viability assay.

NCI-H2452 = assay: cells; assay type: functional, cell-based; settings: Homo sapiens;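 further: growth inhibition of NCI-H2452 cells, read out with a cell viability assay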
Description: SANGER: Inhibition of human NCI-H2452 cell growth in a cell viability assay.

CAL-33 = assay: cells; assay type: functional, cell-based; settings: Homo sapiens;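 further: growth inhibition of CAL-33 cells, read out with a cell viability assay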
Description: SANGER: Inhibition of human CAL-33 cell growth in a cell viability assay.

HuCCT-1 = assay: cells; assay type: functional, cell-based, HuCCT1; settings: Homo sapiens;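 further: growth inhibition of HuCCT-1 cells, read out by a cell viability assay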
Description: SANGER: Inhibition of human HuCCT1 cell growth in a cell viability assay.

SN12C = assay: cells; assay type: functional, cell-based; settings: Homo sapiens;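 further: growth inhibition of human SN12C cells, measured by a cell viability assay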
Description: SANGER: Inhibition of human SN12C cell growth in a cell viability assay.

OVCAR-8 = assay: cells; assay type: functional, cell-based; settings: Homo sapiens;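 further: growth inhibition of human OVCAR-8 cells, read out by a cell viability assay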
Description: SANGER: Inhibition of human OVCAR-8 cell growth in a cell viability assay.

MKN-1 = assay: cells; assay type: functional, cell-based; settings: Homo sapiens;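 further: growth inhibition of human MKN1 cells, read out by a cell viability measurement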
Description: SANGER: Inhibition of human MKN1 cell growth in a cell viability assay.

PFSK-1 = assay: cells; assay type: functional, cell-based; settings: Homo sapiens;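 further: cell viability assay measuring how strongly compounds suppress growth of human PFSK-1 cells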
Description: SANGER: Inhibition of human PFSK-1 cell growth in a cell viability assay.

UMUC3 = assay: cells; assay type: functional, cell-based; settings: Homo sapiens;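 further: growth inhibition of human UM-UC-3 cells, read out with a cell viability assay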
Description: SANGER: Inhibition of human UM-UC-3 cell growth in a cell viability assay.

RPMI-6666 = assay: cells; assay type: functional, cell-based; settings: Homo sapiens
Description: SANGER: Inhibition of human RPMI-6666 cell growth in a cell viability assay.

Huh-7 = assay: cells; assay type: functional, cell-based; settings: Homo sapiens;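 further: HuH-7 cell growth inhibition, read out with a cell viability assay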
Description: SANGER: Inhibition of human HuH-7 cell growth in a cell viability assay.

CPC-N = assay: cells; assay type: functional, cell-based; settings: Homo sapiens;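 further: growth inhibition of CPC-N cells, with a cell viability assay as the readout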
Description: SANGER: Inhibition of human CPC-N cell growth in a cell viability assay.

Calu-1 = assay: SANGER: Inhibition of human Calu-1 cell growth in a cell viability assay.; assay type: functional, cell-based
UACC-812 = assay: cells; assay type: functional, cell-based; settings: Homo sapiens
Description: SANGER: Inhibition of human UACC-812 cell growth in a cell viability assay.

TUR = assay: cells; assay type: functional, cell-based; settings: Homo sapiens;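 further: growth inhibition of human TUR cells, read out with a cell viability assay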
Description: SANGER: Inhibition of human TUR cell growth in a cell viability assay.

D-542MG = assay: cells; assay type: functional, cell-based; settings: Homo sapiens
Description: SANGER: Inhibition of human D-542MG cell growth in a cell viability assay.

Capan-2 = assay: cells; assay type: functional, cell-based; settings: Homo sapiens;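 further: Capan-2 cell growth inhibition, read out with a viability assay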
Description: SANGER: Inhibition of human Capan-2 cell growth in a cell viability assay.

COR-L279 = assay: SANGER: Inhibition of human COR-L279 cell growth in a cell viability assay.; assay type: functional, cell-based
KARPAS-422 = assay: cells; assay type: functional, cell-based; settings: Homo sapiens
Description: SANGER: Inhibition of human KARPAS-422 cell growth in a cell viability assay.

CAL-85-1 = assay: cells; assay type: functional, cell-based; settings: Homo sapiens;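 further: growth inhibition of human CAL-85-1 cells, read out with a cell viability assay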
Description: SANGER: Inhibition of human CAL-85-1 cell growth in a cell viability assay.

CAL-51 = assay: cells; assay type: functional, cell-based; settings: Homo sapiens;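 further: human CAL-51 cell line, growth inhibition read out via a cell viability assay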
Description: SANGER: Inhibition of human CAL-51 cell growth in a cell viability assay.

BHY = assay: cells; assay type: functional, cell-based; settings: Homo sapiens;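 further: cell growth inhibition read out by a viability assay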
Description: SANGER: Inhibition of human BHY cell growth in a cell viability assay.

D-392MG = assay: cells; assay type: functional, cell-based; settings: Homo sapiens
SW1088 = assay: cells; assay type: functional, cell-based; settings: Homo sapiens;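 further: growth inhibition of human SW1088 cells, read out by a cell viability assay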
Description: SANGER: Inhibition of human SW1088 cell growth in a cell viability assay.

NCI-H716 = assay: cells; assay type: functional, cell-based; settings: Homo sapiens;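 further: growth inhibition of human NCI-H716 cells, measured by a cell viability assay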
Description: SANGER: Inhibition of human NCI-H716 cell growth in a cell viability assay.

COLO-680N = assay: cells; assay type: functional, cell-based; settings: Homo sapiens;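 further: cell viability assay used to measure inhibition of COLO-680N cell growth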
Description: SANGER: Inhibition of human COLO-680N cell growth in a cell viability assay.

WSU-NHL = assay: cells; assay type: functional, cell-based; settings: Homo sapiens;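 further: growth inhibition of human WSU-NHL cells, read out with a cell viability assay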
Description: SANGER: Inhibition of human WSU-NHL cell growth in a cell viability assay.

GP5d = assay: cells; assay type: functional, cell-based; settings: Homo sapiens;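 further: growth inhibition of human GP5d cells, read out with a cell viability assay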
Description: SANGER: Inhibition of human GP5d cell growth in a cell viability assay.

TCC-SUP = assay: cells; assay type: functional, cell-based; settings: Homo sapiens;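 further: growth inhibition of TCC-SUP cells, read out with a cell viability assay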
Description: SANGER: Inhibition of human TCCSUP cell growth in a cell viability assay.

KYSE-140 = assay: cells; assay type: functional, cell-based; settings: Homo sapiens;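 further: cell viability assay measuring growth inhibition in human KYSE-140 cells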
Description: SANGER: Inhibition of human KYSE-140 cell growth in a cell viability assay.

NB1 = assay: cells; assay type: functional, cell-based; settings: Homo sapiens;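 further: reduction of NB1 cell proliferation, read out with a viability assay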
Description: SANGER: Inhibition of human NB1 cell growth in a cell viability assay.

D-336MG = assay: cells; assay type: functional, cell-based; settings: Homo sapiens
Description: SANGER: Inhibition of human D-336MG cell growth in a cell viability assay.

769-P = assay: cells; assay type: functional, cell-based; settings: Homo sapiens
Description: SANGER: Inhibition of human 769-P cell growth in a cell viability assay.

MDA-MB-134-VI = assay: cells; assay type: functional, cell-based; settings: Homo sapiens
Description: SANGER: Inhibition of human MDA-MB-134-VI cell growth in a cell viability assay.

NCI-H1694 = assay: cells; assay type: functional, cell-based; settings: Homo sapiens;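 further: cell viability assay measuring inhibition of growth in human NCI-H1694 cells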
Description: SANGER: Inhibition of human NCI-H1694 cell growth in a cell viability assay.

PANC-03-27 = assay: cells; assay type: functional, cell-based; settings: Homo sapiens
Description: SANGER: Inhibition of human PANC-03-27 cell growth in a cell viability assay.

KOSC-2 = assay: cells; assay type: functional, cell-based; settings: Homo sapiens;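 further: growth inhibition of KOSC-2 cells, read out by a cell viability assay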
Description: SANGER: Inhibition of human KOSC-2 cell growth in a cell viability assay.

ST486 = assay: SANGER: Inhibition of human ST486 cell growth in a cell viability assay.; assay type: functional, cell-based
LoVo = assay: cells; assay type: functional, cell-based; settings: Homo sapiens;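 further: growth inhibition of human LoVo cells, read out with a cell viability assay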
Description: SANGER: Inhibition of human LoVo cell growth in a cell viability assay.

SJRH30 = assay: cells; assay type: functional, cell-based; settings: Homo sapiens;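 further: growth inhibition of human SJRH30 cells, read out with a cell viability assay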
Description: SANGER: Inhibition of human SJRH30 cell growth in a cell viability assay.

SNU-449 = assay: cells; assay type: functional, cell-based; settings: Homo sapiens
Description: SANGER: Inhibition of human SNU-449 cell growth in a cell viability assay.

CAL-120 = assay: cells; assay type: functional, cell-based; settings: Homo sapiens;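 further: cell growth inhibition, read out as cell viability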
Description: SANGER: Inhibition of human CAL-120 cell growth in a cell viability assay.

Fc1cc(-c2cc[nH]/c(=N/c3ccc(-n4cnc(N5CCOCC5)n4)cc3)n2)cc(N2CCOCC2)c1
IC50 (COLO-741): > 5120 nM
IC50 (DMS-53): 1080 nM
IC50 (CCF-STTG1): 624 nM
IC50 (OE33): 517 nM
IC50 (G-402): 258 nM
IC50 (NCI-H1703): 591 nM
IC50 (SW13): 1380 nM
IC50 (NCI-H2347): 1020 nM
IC50 (CAKI-1): 334 nM
IC50 (MFE-296): 174 nM
IC50 (NCI-H1693): > 5120 nM
IC50 (COLO-679): 250 nM
IC50 (GDM-1): 204 nM
IC50 (A-427): 286 nM
IC50 (NCI-H889): 2260 nM
IC50 (D-247MG): 4670 nM
IC50 (SK-N-AS): 1210 nM
IC50 (LB647-SCLC): > 5120 nM
IC50 (CAL-27): 66 nM
IC50 (NCI-H2087): 341 nM
IC50 (HCC1569): 412 nM
IC50 (HCC1599): 466 nM
IC50 (NCI-H2452): 1690 nM
IC50 (CAL-33): 826 nM
IC50 (HuCCT-1): 554 nM
IC50 (SN12C): 1150 nM
IC50 (OVCAR-8): 412 nM
IC50 (MKN-1): 549 nM
IC50 (PFSK-1): 811 nM
IC50 (UMUC3): 1270 nM
IC50 (RPMI-6666): 296 nM
IC50 (Huh-7): 756 nM
IC50 (CPC-N): 4220 nM
IC50 (Calu-1): 3120 nM
IC50 (UACC-812): 4420 nM
IC50 (TUR): 363 nM
IC50 (D-542MG): 357 nM
IC50 (Capan-2): 1010 nM
IC50 (COR-L279): 1130 nM
IC50 (KARPAS-422): 406 nM
IC50 (CAL-85-1): 881 nM
IC50 (CAL-51): 219 nM
IC50 (BHY): 510 nM
IC50 (D-392MG): 1930 nM
IC50 (SW1088): > 5120 nM
IC50 (NCI-H716): 3920 nM
IC50 (COLO-680N): 565 nM
IC50 (WSU-NHL): 587 nM
IC50 (GP5d): 514 nM
IC50 (TCC-SUP): > 5120 nM
IC50 (KYSE-140): 1050 nM
IC50 (NB1): 447 nM
IC50 (D-336MG): 1010 nM
IC50 (769-P): 535 nM
IC50 (MDA-MB-134-VI): 4680 nM
IC50 (NCI-H1694): 1500 nM
IC50 (PANC-03-27): 271 nM
IC50 (KOSC-2): 531 nM
IC50 (ST486): 190 nM
IC50 (LoVo): 437 nM
IC50 (SJRH30): 349 nM
IC50 (SNU-449): 522 nM
IC50 (CAL-120): 1420 nM

O=c1[nH]c2ccccc2n1C1CCN(Cc2ccc(-c3nc4cc5[nH]cnc5cc4nc3-c3ccccc3)cc2)CC1
IC50 (COLO-741): > 2560 nM
IC50 (DMS-53): > 2560 nM
IC50 (CCF-STTG1): > 2560 nM
IC50 (OE33): 1890 nM
IC50 (G-402): 1780 nM
IC50 (NCI-H1703): > 2560 nM
IC50 (SW13): > 2560 nM
IC50 (NCI-H2347): > 2560 nM
IC50 (CAKI-1): > 2560 nM
IC50 (MFE-296): 1380 nM
IC50 (NCI-H1693): > 2560 nM
IC50 (COLO-679): > 2560 nM
IC50 (GDM-1): > 2560 nM
IC50 (A-427): > 2560 nM
IC50 (NCI-H889): > 2560 nM
IC50 (D-247MG): > 2560 nM
IC50 (SK-N-AS): > 2560 nM
IC50 (LB647-SCLC): > 2560 nM
IC50 (CAL-27): > 2560 nM
IC50 (NCI-H2087): > 2560 nM
IC50 (HCC1569): > 2560 nM
IC50 (HCC1599): > 2560 nM
IC50 (NCI-H2452): > 2560 nM
IC50 (CAL-33): > 2560 nM
IC50 (HuCCT-1): > 2560 nM
IC50 (SN12C): > 2560 nM
IC50 (OVCAR-8): > 2560 nM
IC50 (MKN-1): > 2560 nM
IC50 (PFSK-1): > 2560 nM
IC50 (UMUC3): > 2560 nM
IC50 (RPMI-6666): > 2560 nM
IC50 (Huh-7): > 2560 nM
IC50 (CPC-N): > 2560 nM
IC50 (Calu-1): > 2560 nM
IC50 (UACC-812): > 2560 nM
IC50 (TUR): > 2560 nM
IC50 (D-542MG): > 2560 nM
IC50 (Capan-2): > 2560 nM
IC50 (COR-L279): 1680 nM
IC50 (KARPAS-422): > 2560 nM
IC50 (CAL-85-1): > 2560 nM
IC50 (CAL-51): > 2560 nM
IC50 (BHY): > 2560 nM
IC50 (D-392MG): > 2560 nM
IC50 (SW1088): > 2560 nM
IC50 (NCI-H716): > 2560 nM
IC50 (COLO-680N): > 2560 nM
IC50 (WSU-NHL): > 2560 nM
IC50 (GP5d): > 2560 nM
IC50 (TCC-SUP): > 2560 nM
IC50 (KYSE-140): > 2560 nM
IC50 (NB1): > 2560 nM
IC50 (D-336MG): > 2560 nM
IC50 (769-P): > 2560 nM
IC50 (MDA-MB-134-VI): > 2560 nM
IC50 (NCI-H1694): > 2560 nM
IC50 (PANC-03-27): > 2560 nM
IC50 (KOSC-2): > 2560 nM
IC50 (ST486): > 2560 nM
IC50 (LoVo): > 2560 nM
IC50 (SJRH30): > 2560 nM
IC50 (SNU-449): > 2560 nM
IC50 (CAL-120): > 2560 nM
